Among the data in patent US20130029967A1, “Fused Imidazo [3,2 - D] Pyrazines as P13 Kinase Inhibitors” (Centro Nacional de Investigaciones Oncologicas (CNIO), priority 2009, published 2013) are IC50 values, retold here.

As usually defined, the IC50 is the concentration needed to halve the response being measured.

The subject of test [1] is phospho-AKT (Ser473) in Osteosarcoma U2OS cells. Put plainly: PI3K cellular activity, ELISA (phospho-AKT Ser473). The class given is cell-based. The conditions noted are these: Homo sapiens, cellular p-AKT. As for the experimental part:
Cell culture: The cell lines were obtained from the American Type Culture Collection (ATCC). U2OS (human osteosarcoma) was cultured in Dulbecco's modified Eagle's medium (DMEM). PC3 (human prostate carcinoma), MCF7 (human breast cardinoma), HCT116 (human colon carcinoma), […], U251 (human glyoblastoma) were grown in RPMI. All media were supplemented with 10% fetal bovine serum (FBS) (Sigma) and antibiotics-antimycotics. Cell were maintained in a humidified incubator at 37° C. with 5% CO2 and passaged when confluent using trypsin/EDTA.
Activity was measured as endogenous levels of phospho-AKT (Ser473) protein. Osteosarcoma U2OS cells were plated in 96 Poly-D-Lysine coating tissue culture plates (18.000 cells/well). After the treatment with serial dilutions of the compound during 3 h, the cells were fixed directly in the wells with 4% paraformaldehide. After fixing, individual wells went through the same series of steps used for a conventional immunoblot: including blocking with 5% BSA, incubation with 1/1000 of primary antibody-AKT ([…]) in PBS containing 5% BSA at 4° C. overnight (Cell Signalling), washing and incubation with second antibody HRP-anti-mouse IgG for 1 h at RT (Amersham). After the addition of SuperSignal ELISA Femto maximum sensitivity chemiluminescent substrate (Pierce) the results were read in a luminescence plate reader (Victor).
In general terms: In an ELISA, binding on a coated surface is turned into a signal by an enzyme label.

In the next test the target is T1, PI3K (p110α/p85α) (Homo sapiens, UniProt P42336).
T1 construct: purchased Carna Biosciences 07CBS-0402A
T1 sequence (P42336 whole entry): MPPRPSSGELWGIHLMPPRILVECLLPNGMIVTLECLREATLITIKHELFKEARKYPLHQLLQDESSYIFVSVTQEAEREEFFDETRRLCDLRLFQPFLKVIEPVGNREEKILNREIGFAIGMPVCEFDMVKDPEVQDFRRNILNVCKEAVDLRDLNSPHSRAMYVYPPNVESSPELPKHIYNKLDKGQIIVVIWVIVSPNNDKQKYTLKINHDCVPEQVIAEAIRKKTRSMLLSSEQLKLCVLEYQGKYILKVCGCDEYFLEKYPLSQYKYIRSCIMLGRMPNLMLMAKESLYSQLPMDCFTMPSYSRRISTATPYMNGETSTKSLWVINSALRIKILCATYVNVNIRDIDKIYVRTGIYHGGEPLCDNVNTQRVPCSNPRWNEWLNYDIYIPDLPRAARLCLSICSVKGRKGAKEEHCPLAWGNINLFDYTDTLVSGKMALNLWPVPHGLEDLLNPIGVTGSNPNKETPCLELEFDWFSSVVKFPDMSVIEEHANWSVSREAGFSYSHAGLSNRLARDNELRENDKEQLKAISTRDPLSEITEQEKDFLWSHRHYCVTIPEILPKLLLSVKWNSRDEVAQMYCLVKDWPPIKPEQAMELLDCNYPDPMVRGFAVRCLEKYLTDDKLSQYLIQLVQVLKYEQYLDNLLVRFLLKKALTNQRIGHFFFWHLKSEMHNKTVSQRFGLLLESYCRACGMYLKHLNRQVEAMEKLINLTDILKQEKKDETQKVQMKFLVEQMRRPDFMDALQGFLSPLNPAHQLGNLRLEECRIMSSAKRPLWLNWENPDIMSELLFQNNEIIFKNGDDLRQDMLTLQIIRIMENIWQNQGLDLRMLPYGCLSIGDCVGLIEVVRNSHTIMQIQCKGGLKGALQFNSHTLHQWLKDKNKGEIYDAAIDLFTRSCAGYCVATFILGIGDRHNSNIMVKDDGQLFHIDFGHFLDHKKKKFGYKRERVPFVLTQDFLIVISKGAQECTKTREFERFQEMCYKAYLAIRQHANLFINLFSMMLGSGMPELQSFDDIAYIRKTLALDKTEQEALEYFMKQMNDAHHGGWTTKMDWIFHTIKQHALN
T1 sequence (P27986 whole entry partner): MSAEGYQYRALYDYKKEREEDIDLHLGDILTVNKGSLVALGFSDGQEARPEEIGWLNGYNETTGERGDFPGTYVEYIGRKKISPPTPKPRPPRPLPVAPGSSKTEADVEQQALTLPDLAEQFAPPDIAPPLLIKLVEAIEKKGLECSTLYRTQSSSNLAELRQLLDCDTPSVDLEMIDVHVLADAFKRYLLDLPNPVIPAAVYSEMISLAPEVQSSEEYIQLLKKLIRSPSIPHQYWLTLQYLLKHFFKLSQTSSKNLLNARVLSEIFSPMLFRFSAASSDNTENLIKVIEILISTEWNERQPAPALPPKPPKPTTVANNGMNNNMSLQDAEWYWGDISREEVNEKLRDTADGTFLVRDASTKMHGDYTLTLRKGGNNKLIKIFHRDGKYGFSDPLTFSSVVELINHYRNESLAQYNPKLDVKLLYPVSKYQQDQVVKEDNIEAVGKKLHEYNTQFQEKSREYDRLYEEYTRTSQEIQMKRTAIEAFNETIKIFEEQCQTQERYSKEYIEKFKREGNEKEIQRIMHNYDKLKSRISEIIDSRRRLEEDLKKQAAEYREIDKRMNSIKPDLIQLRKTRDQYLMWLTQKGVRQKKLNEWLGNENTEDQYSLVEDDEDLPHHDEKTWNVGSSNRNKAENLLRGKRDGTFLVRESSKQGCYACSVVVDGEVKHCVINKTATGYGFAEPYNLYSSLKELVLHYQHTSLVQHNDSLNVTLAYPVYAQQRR
Put plainly: PI3K activity assay (ADP Hunter Plus). The class given is biochemical. The conditions noted are these: quantitative results, read-out: PI3K α IC50. As for the experimental part: The kinase activity was measured by using the commercial ADP Hunter™ Plus assay available from DiscoveRx (#33-016), which is a homogeneous assay to measure the accumulation of ADP, a universal product of kinase activity. […] Reaction was carried out for 1 hour at 25° C. Reagent A and B were sequentially added to the wells and plates were incubated for 30 min at 37° C. […] Values were normalized against the control activity included for each enzyme (i.e., 100% PI3 kinase activity, without compound). These values were plot against the inhibitor concentration and were fit to a sigmoid dose-response curve by using the Graphed software.

Like-named read-outs stand apart in the source and are kept apart here.

Turning to `CCNC(=O)N1CCc2nc3c(N4CCOCC4)nc(-c4cnc(N)nc4)cn3c2C1` [2-38], half-maximal inhibition in test [1] (IC50) required 1.23 µM.

For `CS(=O)(=O)N1CCc2nc3c(N4CCOCC4)nc(-c4cnc(N)nc4)c(Cl)n3c2C1` [2-49], the values for the IC50 (in test [1]; on PI3K (p110α/p85α) (PI3Kα)) were 0.095 µM and 0.009 µM, respectively.

Consider `CCCNC(=O)N1CCc2nc3c(N4CCOCC4)nc(-c4cnc(N)nc4)cn3c2C1` [2-53], for which the figures for the concentration for half-maximal inhibition (IC50) (in test [1]; on PI3K (p110α/p85α) (PI3Kα)) were 0.564 µM and 0.062 µM, respectively.

With `CC(C)S(=O)(=O)N1CCc2nc3c(N4CCOCC4)nc(-c4cnc(N)nc4)cn3c2C1` [2-59], the IC50 in test [1] came to 0.853 µM; at PI3K (p110α/p85α) (PI3Kα), 0.077 µM.

On to `Nc1ncc(-c2cn3c4c(nc3c(N3CCOCC3)n2)CCN(C(=O)NC2CCCC2)C4)cn1` [2-66], for which the half-inhibitory concentration (IC50) in test [1] was 0.546 µM; at PI3K (p110α/p85α) (PI3Kα), 0.057 µM.

`Nc1ncc(-c2cn3c4c(nc3c(N3CCOCC3)n2)CCN(S(=O)(=O)C2CCCC2)C4)cn1` [2-69]: the IC50 was found to be 0.45 µM in test [1] and 0.023 µM at PI3K (p110α/p85α) (PI3Kα).

Take `COc1ccccc1NC(=O)N1CCc2nc3c(N4CCOCC4)nc(-c4cnc(N)nc4)cn3c2C1` [2-72]: the IC50 in test [1] worked out at 0.473 µM; on PI3K (p110α/p85α) (PI3Kα) it was 0.047 µM.

Take `CCS(=O)(=O)N1CCc2nc3c(N4CCOCC4)nc(-c4cnc(N)nc4)cn3c2C1` [2-73]: the values for the IC50 (in test [1]; on PI3K (p110α/p85α) (PI3Kα)) were 0.236 µM and 0.029 µM, respectively.

In the case of `CN(C)c1ccc(NC(=O)N2CCc3nc4c(N5CCOCC5)nc(-c5cnc(N)nc5)cn4c3C2)cc1` [2-74], the IC50 was found to be 0.888 µM in test [1] and 0.074 µM at PI3K (p110α/p85α) (PI3Kα).

Consider `Nc1ncc(-c2cn3c4c(nc3c(N3CCOCC3)n2)CCN(C(=O)NCc2cccc(F)c2)C4)cn1` [2-83], for which the IC50 in test [1] was determined as 0.497 µM; on PI3K (p110α/p85α) (PI3Kα), 0.025 µM.

In the case of `COCCS(=O)(=O)N1CCc2nc3c(N4CCOCC4)nc(-c4cnc(N)nc4)cn3c2C1` [2-85], the IC50 came out at 0.344 µM in test [1] and 0.054 µM at PI3K (p110α/p85α) (PI3Kα).

With `Nc1ncc(-c2cn3c4c(nc3c(N3CCOCC3)n2)CCN(C(=O)NCc2ccccc2F)C4)cn1` [2-90], the half-inhibitory concentration (IC50) is 0.302 µM in test [1] and 0.046 µM on PI3K (p110α/p85α) (PI3Kα).

Regarding `Nc1ncc(-c2cn3c4c(nc3c(N3CCOCC3)n2)CCN(C(=O)Nc2cccc(F)c2)C4)cn1` [2-91], the results for the concentration for half-maximal inhibition (IC50) (in test [1]; at PI3K (p110α/p85α) (PI3Kα)) were 0.443 µM and 0.075 µM, respectively.

Turning to `COc1cccc(NC(=O)N2CCc3nc4c(N5CCOCC5)nc(-c5cnc(N)nc5)cn4c3C2)c1` [2-93], the figures for the half-inhibitory concentration (IC50) (in test [1]; at PI3K (p110α/p85α) (PI3Kα)) were 0.415 µM and 0.064 µM, respectively.

For `Cc1ccc(CNC(=O)N2CCc3nc4c(N5CCOCC5)nc(-c5cnc(N)nc5)cn4c3C2)cc1` [2-94], the IC50 in test [1] was 0.26 µM; at PI3K (p110α/p85α) (PI3Kα), 0.037 µM.

As for `COc1ccc(CNC(=O)N2CCc3nc4c(N5CCOCC5)nc(-c5cnc(N)nc5)cn4c3C2)cc1` [2-96], the half-inhibitory concentration (IC50) came out at 0.385 µM in test [1] and 0.028 µM at PI3K (p110α/p85α) (PI3Kα).

`COc1cccc(CNC(=O)N2CCc3nc4c(N5CCOCC5)nc(-c5cnc(N)nc5)cn4c3C2)c1` [2-97]: the figures for the 50% inhibitory concentration (IC50) (in test [1]; on PI3K (p110α/p85α) (PI3Kα)) were 0.491 µM and 0.038 µM, respectively.

In the case of `COc1ccc(NC(=O)N2CCc3nc4c(N5CCOCC5)nc(-c5cnc(N)nc5)cn4c3C2)cc1` [2-102], the IC50 came out at 0.541 µM in test [1] and 0.07 µM at PI3K (p110α/p85α) (PI3Kα).

`Cc1ccc(NC(=O)N2CCc3nc4c(N5CCOCC5)nc(-c5cnc(N)nc5)cn4c3C2)cc1` [2-105]: the values for the IC50 (in test [1]; at PI3K (p110α/p85α) (PI3Kα)) were 0.345 µM and 0.044 µM, respectively.

Consider `CC(C)CS(=O)(=O)N1CCc2nc3c(N4CCOCC4)nc(-c4cnc(N)nc4)cn3c2C1` [2-109], for which the IC50 came to 0.763 µM in test [1] and 0.095 µM on PI3K (p110α/p85α) (PI3Kα).

On to `CS(=O)(=O)c1ccccc1CN1CCc2nc3c(N4CCOCC4)nc(-c4cnc(N)nc4)cn3c2C1` [2-117], for which, on PI3K (p110α/p85α), the half-inhibitory concentration (IC50) came out at 0.037 µM.

With `CC1(C)Cc2nc3c(N4CCOCC4)nc(-c4cnc(N)nc4)cn3c2C(O)C1` (stereo not shown) [5-05], the half-maximal inhibitory concentration (IC50) on PI3K (p110α/p85α) worked out at 0.661 µM.

As to `O=C1CCc2nc3c(N4CCOCC4)nc(-c4cccc(O)c4)cn3c2N1` [5-10], the IC50 at PI3K (p110α/p85α) is 0.409 µM.

`Nc1ncc(-c2cn3c4c(nc3c(N3CCOCC3)n2)CCC(=O)N4)cn1` [5-11]: the half-maximal inhibitory concentration (IC50) in test [1] is 0.475 µM; on PI3K (p110α/p85α) it was 0.014 µM.

On to `CN(C)CCN1CCc2c(nc3c(N4CCOCC4)nc(-c4cnc(N)nc4)cn23)C1` [6-04], for which the 50% inhibitory concentration (IC50) on PI3K (p110α/p85α) was found to be 0.178 µM.

As for `Nc1ncc(-c2nc(N3CCOCC3)c3nc4c(n3c2Cl)CCN(Cc2ccc(F)cc2)C4)cn1` [6-12], the IC50 on PI3K (p110α/p85α) came out at 0.29 µM.

Regarding `Nc1ncc(-c2cn3c4c(nc3c(N3CCOCC3)n2)CN(C(=O)C(F)(F)F)CC4)cn1` [6-14], the half-inhibitory concentration (IC50) on PI3K (p110α/p85α) turned out to be 0.023 µM.

On to `CS(=O)(=O)N1CCc2c(nc3c(N4CCOCC4)nc(-c4cnc(N)nc4)c(Cl)n23)C1` [6-17], for which the figures for the IC50 (in test [1]; at PI3K (p110α/p85α)) were 0.246 µM and 0.033 µM, respectively.

Turning to `CCS(=O)(=O)N1CCc2c(nc3c(N4CCOCC4)nc(-c4cnc(N)nc4)cn23)C1` [6-20], on PI3K (p110α/p85α), the IC50 came to 0.022 µM.

On to `CC(C)NC(=O)N1CCc2c(nc3c(N4CCOCC4)nc(-c4cnc(N)nc4)cn23)C1` [6-22], for which the half-inhibitory concentration (IC50) on PI3K (p110α/p85α) came out at 0.1 µM.

For `Nc1ncc(-c2cn3c4c(nc3c(N3CCOCC3)n2)CN(C(=O)C2CC2)CC4)cn1` [6-24], the half-maximal inhibitory concentration (IC50) in test [1] stood at 0.218 µM; on PI3K (p110α/p85α), 0.029 µM.

`CC(C)C(=O)N1CCc2c(nc3c(N4CCOCC4)nc(-c4cnc(N)nc4)cn23)C1` [6-26]: the figures for the IC50 (in test [1]; on PI3K (p110α/p85α)) were 0.137 µM and 0.044 µM, respectively.

With `Nc1ncc(-c2cn3c4c(nc3c(N3CCOCC3)n2)CN(S(=O)(=O)C2CCOCC2)CC4)cn1` [6-28], at PI3K (p110α/p85α), the IC50 stood at 0.018 µM.

For `N#CCCCS(=O)(=O)N1CCc2c(nc3c(N4CCOCC4)nc(-c4cnc(N)nc4)cn23)C1` [6-29], on PI3K (p110α/p85α), the 50% inhibitory concentration (IC50) came out at 0.031 µM.

For `COc1ccccc1NC(=O)N1CCc2c(nc3c(N4CCOCC4)nc(-c4cnc(N)nc4)cn23)C1` [6-33], the results for the concentration for half-maximal inhibition (IC50) (in test [1]; on PI3K (p110α/p85α)) were 0.188 µM and 0.025 µM, respectively.

Consider `COCCC(=O)N1CCc2c(nc3c(N4CCOCC4)nc(-c4cnc(N)nc4)cn23)C1` [6-35], for which the IC50 on PI3K (p110α/p85α) turned out to be 0.079 µM.

As for `Nc1ncc(-c2cn3c4c(nc3c(N3CCOCC3)n2)CN(C(=O)Nc2ccccc2F)CC4)cn1` [6-36], the IC50 in test [1] amounted to 0.25 µM; on PI3K (p110α/p85α) it was 0.021 µM.

Turning to `CN(C)c1ccc(NC(=O)N2CCc3c(nc4c(N5CCOCC5)nc(-c5cnc(N)nc5)cn34)C2)cc1` [6-39], the IC50 in test [1] was determined as 0.187 µM; on PI3K (p110α/p85α), 0.017 µM.

For the compound `Nc1ncc(-c2cn3c4c(nc3c(N3CCOCC3)n2)CN(C(=O)NCc2ccccc2F)CC4)cn1` [6-44], the IC50 in test [1] was determined as 0.139 µM; on PI3K (p110α/p85α), 0.007 µM.

As for `Nc1ncc(-c2cn3c4c(nc3c(N3CCOCC3)n2)CN(C(=O)Nc2cccc(F)c2)CC4)cn1` [6-45], the IC50 in test [1] came out at 0.101 µM; on PI3K (p110α/p85α) it was 0.014 µM.

`COc1ccccc1CNC(=O)N1CCc2c(nc3c(N4CCOCC4)nc(-c4cnc(N)nc4)cn23)C1` [6-46]: the results for the IC50 (in test [1]; on PI3K (p110α/p85α)) were 0.112 µM and 0.007 µM, respectively.
